From US6858591B2, “Antibiotic AA 896 analogs” (Wyeth Holdings Corporation, priority 2001, dated 2005)
In brackets after ≈: the same amount, converted by molar mass. Read-outs that look alike come from different tables or passages of the source.

Experiments:
Assay in all cases: In vitro MIC, broth dilution
Format in all cases: cell-based
P. aeruginosa GC 4532 = conditions: Pseudomonas aeruginosa, GC4532
S. aureus GC 4536 = conditions: Staphylococcus aureus, GC4536
Method: (§1) The minimum inhibitory concentration (MIC), the lowest concentration of the antibiotic which inhibits growth of the test organism, is determined by the broth dilution method using Muller-Hinton II […] (Baltimore Biological Laboratories) following the recommendations of National Committee for Clinical Laboratory Standards. [Reference for the Methods for dilution antimicrobial susceptibility tests for bacteria that grow aerobically: National Committee for Clinical Laboratory Standards, 1997. Approved standard M7-A National Committee for Clinical Laboratory Standards, Wayne, Pa.] An inoculum level of 5×10^5 CFU/ml, and a range of antibiotic concentrations (64-0.06 μg/ml) is used. The MIC is determined after the microtiter plates are incubated for 18 hours at 35° C. in an ambient air incubator. The test organisms comprise a spectrum of gram-positive bacteria including Staphylococcus sp., Streptococcus sp. and Enterococcus sp. These organisms include recent clinical isolates that are resistant to methicillin, penicillin and vancomycin.

E. faecalis GC 2242 = conditions: Enterococcus faecalis, GC2242
Method: as §1

CNS GC 4538 = tested on: CNS GC 4538
Method: as §1

S. aureus GC 1131 = conditions: Staphylococcus aureus, GC1131
Method: as §1

CNS GC 4547 = tested on: CNS GC 4547
Method: as §1

S. aureus GC 2216 = conditions: Staphylococcus aureus, GC2216
Method: as §1

E. faecalis GC 842 = conditions: Enterococcus faecalis, GC842
Method: as §1

E. faecalis GC 4555 = conditions: Enterococcus faecalis, GC4555
Method: as §1

CNS GC 4537 = tested on: CNS GC 4537
Method: as §1

E. coli GC 3226 = conditions: Escherichia coli, GC3226
E. cloacae GC 3783 = conditions: Enterobacter cloacae, GC3783
E. coli GC 4560 = conditions: Escherichia coli, GC4560
P. aeruginosa GC 2214 = conditions: Pseudomonas aeruginosa, GC2214
M. morganii GC 4531 = conditions: Morganella morganii, GC4531
K. pneumoniae GC 4534 = conditions: Klebsiella pneumoniae, GC4534
E. coli GC 4559 = conditions: Escherichia coli, GC4559
C. albicans GC 3066 = conditions: Candida albicans, GC3066
S. marcescens GC 4077 = conditions: Serratia marcescens, GC4077
E. coli GC 2203 = conditions: Escherichia coli, GC2203
[1] = P. aeruginosa GC 4532, read-out: MIC
[2] = S. aureus GC 4536, read-out: MIC
[3] = E. faecalis GC 2242, read-out: MIC
[4] = S. aureus GC 1131, read-out: MIC
[5] = S. aureus GC 2216, read-out: MIC
[6] = E. faecalis GC 842, read-out: MIC
[7] = E. faecalis GC 4555, read-out: MIC
[8] = E. cloacae GC 3783, read-out: MIC
[9] = P. aeruginosa GC 2214, read-out: MIC
[10] = M. morganii GC 4531, read-out: MIC
[11] = K. pneumoniae GC 4534, read-out: MIC
[12] = C. albicans GC 3066, read-out: MIC
[13] = S. marcescens GC 4077, read-out: MIC

| Compound | MIC (P. aeruginosa GC 4532) | MIC (S. aureus GC 4536) | MIC (E. faecalis GC 2242) | MIC (CNS GC 4538) | MIC (S. aureus GC 1131) | MIC (CNS GC 4547) | MIC (S. aureus GC 2216) | MIC (E. faecalis GC 842) | MIC (E. faecalis GC 4555) | MIC (CNS GC 4537) | MIC (E. coli GC 3226) | MIC (E. cloacae GC 3783) | MIC (E. coli GC 4560) | MIC (P. aeruginosa GC 2214) | MIC (M. morganii GC 4531) | MIC (K. pneumoniae GC 4534) | MIC (E. coli GC 4559) | MIC (C. albicans GC 3066) | MIC (S. marcescens GC 4077) | MIC (E. coli GC 2203) | further results |
| --- | --- | --- | --- | --- | --- | --- | --- | --- | --- | --- | --- | --- | --- | --- | --- | --- | --- | --- | --- | --- | --- |
| COc1ccc(Cn2c(=O)ccn([C@@H]3OC([C@@H](O)[C@H](NCCCNC(=O)[C@@H](NC(=O)OCc4ccccc4)[C@H](C)O)C(=O)OC(C)(C)C)[C@@H](O[Si](C)(C)C(C)(C)C)[C@H]3O[Si](C)(C)C(C)(C)C)c2=O)cc1 (stereo partly drawn) [Example 8, tert-Butyl (5S,12S)-12-[(S)-[(3R,4R,5R)-3,4-bis{[tert-butyl(dimethyl)silyl]oxy}-5-(3-(4-methoxybenzyl)-2,4-dioxo-3,4-dihydro-1(2H)-pyrimidinyl)tetrahydro-2-furanyl](hydroxy)methyl]-5-[(1S)-1-hydroxyethyl]-3,6-dioxo-1-phenyl-2-oxa-4,7,11-triazatridecan-13-oate] | 64 µg/mL (≈ 63.1 µM) | 128 µg/mL (≈ 126 µM) | 64 µg/mL (≈ 63.1 µM) | 128 µg/mL (≈ 126 µM) | 128 µg/mL (≈ 126 µM) | 128 µg/mL (≈ 126 µM) | 128 µg/mL (≈ 126 µM) | 64 µg/mL (≈ 63.1 µM) | 64 µg/mL (≈ 63.1 µM) | 128 µg/mL (≈ 126 µM) | > 128 µg/mL | 64 µg/mL (≈ 63.1 µM) | 64 µg/mL (≈ 63.1 µM) | 64 µg/mL (≈ 63.1 µM) | 64 µg/mL (≈ 63.1 µM) | 64 µg/mL (≈ 63.1 µM) | > 128 µg/mL | 32 µg/mL (≈ 31.5 µM) | 64 µg/mL (≈ 63.1 µM) | 64 µg/mL (≈ 63.1 µM) | – |
| COc1ccc(Cn2c(=O)ccn([C@@H]3OC([C@@H](O)[C@H](NCCCNC(=O)[C@@H](N)[C@H](C)O)C(=O)OC(C)(C)C)[C@@H](O[Si](C)(C)C(C)(C)C)[C@H]3O[Si](C)(C)C(C)(C)C)c2=O)cc1 (stereo partly drawn) [Example 9, tert-Butyl (2S,3S)-2-[(3-{[(2S,3S)-2-amino-3-hydroxybutanoyl]amino}propyl)amino]-3-[(3R,4R,5R)-3,4-bis{[tert-butyl(dimethyl)silyl]oxy}-5-(3-(4-methoxybenzyl)-2,4-dioxo-3,4-dihydro-1(2H)-pyrimidinyl)tetrahydro-2-furanyl]-3-hydroxypropanoate] | – | – | – | – | – | – | – | – | – | – | – | – | – | – | – | – | – | – | – | – | MIC (P. aeruginosa GC 4532; [1]): 128 µg/mL (≈ 145 µM); MIC (S. aureus GC 4536; [2]): 128 µg/mL (≈ 145 µM); MIC (E. faecalis GC 2242; [3]): 128 µg/mL (≈ 145 µM); MIC (CNS GC 4538; CNS GC 4538, read-out: MIC): 128 µg/mL (≈ 145 µM); MIC (S. aureus GC 1131; [4]): 128 µg/mL (≈ 145 µM); MIC (CNS GC 4547; CNS GC 4547, read-out: MIC): 8 µg/mL (≈ 9.09 µM); MIC (S. aureus GC 2216; [5]): 128 µg/mL (≈ 145 µM); MIC (E. faecalis GC 842; [6]): > 128 µg/mL; MIC (E. faecalis GC 4555; [7]): 128 µg/mL (≈ 145 µM); MIC (CNS GC 4537; CNS GC 4537, read-out: MIC): 128 µg/mL (≈ 145 µM); MIC (E. coli GC 3226; E. coli GC 3226, read-out: MIC): > 128 µg/mL; MIC (E. cloacae GC 3783; [8]): > 128 µg/mL; MIC (E. coli GC 4560; E. coli GC 4560, read-out: MIC): 128 µg/mL (≈ 145 µM); MIC (P. aeruginosa GC 2214; [9]): 128 µg/mL (≈ 145 µM); MIC (M. morganii GC 4531; [10]): > 128 µg/mL; MIC (K. pneumoniae GC 4534; [11]): > 128 µg/mL; MIC (E. coli GC 4559; E. coli GC 4559, read-out: MIC): > 128 µg/mL; MIC (C. albicans GC 3066; [12]): 128 µg/mL (≈ 145 µM); MIC (S. marcescens GC 4077; [13]): > 128 µg/mL; MIC (E. coli GC 2203; E. coli GC 2203, read-out: MIC): > 128 µg/mL |
| COc1ccc(Cn2c(=O)ccn([C@@H]3OC([C@H](O)[C@H](NCCCNC(=O)[C@@H](NC(=O)OCc4ccccc4)[C@H](C)O)C(=O)OC(C)(C)C)[C@@H](O[Si](C)(C)C(C)(C)C)[C@H]3O[Si](C)(C)C(C)(C)C)c2=O)cc1 (stereo partly drawn) [Example 10, tert-Butyl (5S,12S)-12-[(R)-[(3R,4R,5R)-3,4-bis{[tert-butyl(dimethyl)silyl]oxy}-5-(3-(4-methoxybenzyl)-2,4-dioxo-3,4-dihydro-1(2H)-pyrimidinyl)tetrahydro-2-furanyl](hydroxy)methyl]-5-[(1S)-1-hydroxyethyl]-3,6-dioxo-1-phenyl-2-oxa-4,7,11-triazatridecan-13-oate] | > 128 µg/mL | > 128 µg/mL | 128 µg/mL (≈ 126 µM) | > 128 µg/mL | > 128 µg/mL | > 128 µg/mL | > 128 µg/mL | > 128 µg/mL | > 128 µg/mL | > 128 µg/mL | > 128 µg/mL | > 128 µg/mL | > 128 µg/mL | > 128 µg/mL | > 128 µg/mL | > 128 µg/mL | > 128 µg/mL | 128 µg/mL (≈ 126 µM) | > 128 µg/mL | > 128 µg/mL | – |
| COc1ccc(Cn2c(=O)ccn([C@@H]3OC([C@H](O)[C@H](NCCCNC(=O)[C@@H](N)[C@H](C)O)C(=O)OC(C)(C)C)[C@@H](O[Si](C)(C)C(C)(C)C)[C@H]3O[Si](C)(C)C(C)(C)C)c2=O)cc1 (stereo partly drawn) [Example 11, tert-Butyl (2S,3R)-2-[(3-{[(2S,3S)-2-amino-3-hydroxybutanoyl]amino}propyl)amino]-3-[(3R,4R,5R)-3,4-bis{[tert-butyl(dimethyl)silyl]oxy}-5-(3-(4-methoxybenzyl)-2,4-dioxo-3,4-dihydro-1(2H)-pyrimidinyl)tetrahydro-2-furanyl]-3-hydroxypropanoate] | – | – | – | – | – | – | – | – | – | – | – | – | – | – | – | – | – | – | – | – | MIC (P. aeruginosa GC 4532; [1]): > 128 µg/mL; MIC (S. aureus GC 4536; [2]): 4 µg/mL (≈ 4.54 µM); MIC (E. faecalis GC 2242; [3]): 8 µg/mL (≈ 9.09 µM); MIC (CNS GC 4538; CNS GC 4538, read-out: MIC): 4 µg/mL (≈ 4.54 µM); MIC (S. aureus GC 1131; [4]): 8 µg/mL (≈ 9.09 µM); MIC (CNS GC 4547; CNS GC 4547, read-out: MIC): 8 µg/mL (≈ 9.09 µM); MIC (S. aureus GC 2216; [5]): 4 µg/mL (≈ 4.54 µM); MIC (E. faecalis GC 842; [6]): 4 µg/mL (≈ 4.54 µM); MIC (E. faecalis GC 4555; [7]): 4 µg/mL (≈ 4.54 µM); MIC (CNS GC 4537; CNS GC 4537, read-out: MIC): 4 µg/mL (≈ 4.54 µM); MIC (E. coli GC 3226; E. coli GC 3226, read-out: MIC): > 128 µg/mL; MIC (E. cloacae GC 3783; [8]): > 128 µg/mL; MIC (E. coli GC 4560; E. coli GC 4560, read-out: MIC): > 128 µg/mL; MIC (P. aeruginosa GC 2214; [9]): 128 µg/mL (≈ 145 µM); MIC (M. morganii GC 4531; [10]): > 128 µg/mL; MIC (K. pneumoniae GC 4534; [11]): > 128 µg/mL; MIC (E. coli GC 4559; E. coli GC 4559, read-out: MIC): > 128 µg/mL; MIC (C. albicans GC 3066; [12]): > 128 µg/mL; MIC (S. marcescens GC 4077; [13]): > 128 µg/mL; MIC (E. coli GC 2203; E. coli GC 2203, read-out: MIC): > 128 µg/mL |
| COc1ccc(Cn2c(=O)ccn([C@@H]3OC([C@H](O)[C@H](NCCCNC(=O)[C@H](Cc4ccccc4)NC(=O)OCc4ccccc4)C(=O)OC(C)(C)C)[C@@H](O[Si](C)(C)C(C)(C)C)[C@H]3O[Si](C)(C)C(C)(C)C)c2=O)cc1 (stereo partly drawn) [Example 12, tert-Butyl (5S,12S)-5-benzyl-12-[(R)-[(3R,4R,5R)-3,4-bis{[tertbutyl(dimethyl)silyl]oxy}-5-(3-(4-methoxybenzyl)-2,4-dioxo-3,4-dihydro-1(2H)-pyrimidinyl)tetrahydro-2-furanyl](hydroxy)methyl]-3,6-dioxo-1-phenyl-2-oxa-4,7,11-triazatridecan-13-oate] | 128 µg/mL (≈ 121 µM) | > 128 µg/mL | 128 µg/mL (≈ 121 µM) | > 128 µg/mL | > 128 µg/mL | 128 µg/mL (≈ 121 µM) | > 128 µg/mL | 128 µg/mL (≈ 121 µM) | 128 µg/mL (≈ 121 µM) | > 128 µg/mL | > 128 µg/mL | 128 µg/mL (≈ 121 µM) | 128 µg/mL (≈ 121 µM) | 128 µg/mL (≈ 121 µM) | 128 µg/mL (≈ 121 µM) | > 128 µg/mL | > 128 µg/mL | 128 µg/mL (≈ 121 µM) | 128 µg/mL (≈ 121 µM) | > 128 µg/mL | – |
